pIC50: −log10 of the molar value.
Key:
[1] = tested on: skin-resident immunocompetent cells in human skin biopsies; assay: Ex vivo full-thickness human skin biopsy culture with Th17-inducing cocktail
Method: Full-thickness skin punch biopsies (8 mm diameter) were taken from surgical discards. Briefly, subcutaneous fat was removed from the skin ranging in size between 150 and 200 cm^2 and 8 mm punches were obtained. Samples were incubated in IMDM medium supplemented with Glutamax, 10% FCS, 1% non-essential amino acids, 1 mM Sodium pyruvate, Penicillin/Streptomycin and Amphotericin B (2.5 μg/ml). Incubations were done in the presence of various concentrations of Cpd A or DMSO vehicle control together with a Th17-inducing cocktail consisting of IL-6 (20 ng/ml), TGF-β1 (5 ng/ml), IL-1β (10 ng/ml), IL-23 (10 ng/ml), anti-IL-4/IFNγ (5 μg/ml), and anti-CD3/CD28 antibodies (1 μg/ml). On day 4, supernatants were harvested and analyzed for IL-17 cytokine expression, whereas skin punch biopsies were snap frozen, stored at −80°C and further processed for qRT-PCR analysis.
Total RNA from human Th17 cells (6 × 10^5 cells), RORγt-RORE HUT78 cells (4 × 10^5 cells) and HaCaT cells (6 × 10^4 cells) was extracted using RNeasy kit including a DNAse I digestion step according to the manufacturer‘s protocol (Qiagen). […] Quantitative RT-PCR analysis was performed using a TaqManViiA7 (Applied Biosystems). […]

total CD4+ T-cells = assay: Intracellular FACS of IL-17A/IFN-γ-producing CD4+ T-cells after Th17 polarization; type: cell-based, human; conditions: 3-day Th17 differentiation
Method: Total, naive and memory CD4^+ T cells were isolated from Peripheral blood mononuclear cells (PBMCs) from healthy volunteers by density gradient centrifugation using Ficoll Paque (GE). Total, naive or memory CD4^+ T-cells were prepared by immunomagnetic separation using the respective CD4^+ T-cell enrichment kits resulting in untouched highly purified subsets (EasySep™, Stem Cell). Purity was assessed by flow cytometry and was between 95 and 98% for the total CD4^+ T-cells. The purity of naive (CD45RA^+CD45RO^−) and memory (CD45RA^−CD45RO^+) CD4^+T-cells ranged between 95 and 98%, respectively. For T-cell stimulation experiments, cells were treated as previously published ([44]). Briefly, T-cells were stimulated with plate-bound monoclonal antibodies against CD3 (1 μg/ml, clone OKT-3, BioXcell) and CD28 (1 μg/ml, clone CD28.2, BioLegend). For Th17 polarization assays, IL-6 (20 ng/ml), TGF-β1 (5 ng/ml), IL-1β (10 ng/ml), and IL-23 (10 ng/ml) were added. For Th1 polarization assays, IL-12 (10 ng/ml) and anti-IL-4 antibody (5 μg/ml), for Th2 polarizations, IL-4 (10 ng/ml) and anti-IFN-γ antibody (5 μg/ml) were added. For Th0 polarization assays, cells were only stimulated with CD3 and CD28 antibodies. […] Cytokine concentrations were quantified by ELISA according to the manufacturer's instructions (eBioscience or BioLegend). […]

total human CD4+ T-cells = assay: Th17 polarization of total CD4+ T-cells, cytokine ELISA; type: cell-based; conditions: for IL-17 concentration in Th17 cell supernatants: 72 h
Method: Total, naive and memory CD4^+ T cells were isolated from Peripheral blood mononuclear cells (PBMCs) from healthy volunteers by density gradient centrifugation using Ficoll Paque (GE). Total, naive or memory CD4^+ T-cells were prepared by immunomagnetic separation using the respective CD4^+ T-cell enrichment kits resulting in untouched highly purified subsets (EasySep™, Stem Cell). Purity was assessed by flow cytometry and was between 95 and 98% for the total CD4^+ T-cells. The purity of naive (CD45RA^+CD45RO^−) and memory (CD45RA^−CD45RO^+) CD4^+T-cells ranged between 95 and 98%, respectively. For T-cell stimulation experiments, cells were treated as previously published ([44]). Briefly, T-cells were stimulated with plate-bound monoclonal antibodies against CD3 (1 μg/ml, clone OKT-3, BioXcell) and CD28 (1 μg/ml, clone CD28.2, BioLegend). For Th17 polarization assays, IL-6 (20 ng/ml), TGF-β1 (5 ng/ml), IL-1β (10 ng/ml), and IL-23 (10 ng/ml) were added. For Th1 polarization assays, IL-12 (10 ng/ml) and anti-IL-4 antibody (5 μg/ml), for Th2 polarizations, IL-4 (10 ng/ml) and anti-IFN-γ antibody (5 μg/ml) were added. For Th0 polarization assays, cells were only stimulated with CD3 and CD28 antibodies. Supernatants were collected after 3 or 7 days of incubation for total or naive/memory CD4^+ T-cell polarizations, respectively. Cytokine concentrations were quantified by ELISA according to the manufacturer's instructions (eBioscience or BioLegend).

With Cc1ccc(C(=O)Nc2cn3ccnc3c(CN3CCN(c4noc(C(C)(C)C)n4)[C@@H](C)C3)c2C)cn1 [Cpd A, (S)-N-(8-((4-(5-(tert-butyl)-1,2,4-oxadiazol-3-yl)-3-methylpiperazin-1-yl)methyl)-7-methylimidazo[1,2-a]pyridin-6-yl)-6-methylnicotinamide] the “h-BD2 (DEFB4A) gene expression in skin punches” value [1] was “significantly down-regulated”, the “IL-17A secretion by skin-resident immunocompetent cells” value ([1]; ex vivo skin punches, various concentrations) was “concentration-dependent inhibition” and the “frequencies of IFN-γ+ cells” value (total CD4+ T-cells) was “not affected”. The “frequencies of IL-17A+ cells within the CD4+ T-cell population” value (total CD4+ T-cells) was “reduced”, the “IL-17 concentration in Th17 cell supernatants” value (total human CD4+ T-cells; 0.13 nM (pharmacologically inactive concentration)) was 600 pg/mL and the “IL-17 concentration in Th17 cell supernatants” value (total human CD4+ T-cells; 10 μM (active concentration)) was 150 pg/mL. The pIC50 (total human CD4+ T-cells; Homo sapiens, T-cell, total CD4+ T-cells, Th17 polarization 72 h, ELISA, read-out: IC50, IL-17A secretion) was 7.41 and the “TNF-α concentration in Th17 cell supernatants” value (total human CD4+ T-cells; similar at low or high compound concentrations) was 4 ng/mL.

Source: article PMC6443933, “Antagonizing Retinoic Acid-Related-Orphan Receptor Gamma Activity Blocks the T Helper 17/Interleukin-17 Pathway Leading to Attenuated Pro-inflammatory Human Keratinocyte and Skin Responses” (Frontiers in Immunology, 2019)
